Measurements reported in patent US8889705B2, “Noscapine analogs and their use in treating cancers” (Emory University, priority 2007, dated 2014).
Read-outs that look alike come from different tables or passages of the source.

Key:
tubulin [1] = molecular target: T1, tubulin; assay: Tubulin binding assay (fluorescence titration, quenching of intrinsic tubulin fluorescence); parameters: species or system mammalian; conditions: 2 μM tubulin, 45 min at 37° C., double reciprocal plot; read-out: dissociation constant (Kd) for binding to tubulin
T1 construct: other: 2 μM tubulin, 45 min at 37° C., double reciprocal plot; rate and extent of tubulin polymerization; other: 25 μM or 100 μM
Procedure: Fluorescence titration for determining the tubulin binding parameters was performed as described previously (Gupta and Panda, 2002). In brief, 9-nitro-nos (0-100 μM) was incubated with 2 μM tubulin in 25 mM PIPES, pH 6.8, 3 mM MgSO4 and 1 mM EGTA for 45 min at 37° C. The relative intrinsic fluorescence intensity of tubulin was then monitored in a JASCO FP-6500 spectrofluorometer (JASCO, Tokyo, Japan) using a cuvette of 0.3-cm path length, and the excitation wavelength was 295 nm. The fluorescence emission intensity of 9-nitro-nos at this excitation wavelength was negligible. A 0.3-cm path-length cuvette was used to minimize the inner filter effects caused by the absorbance of 9-nitro-nos at higher concentration ranges. In addition, the inner filter effects were corrected using a formula Fcorrected=Fobserved·antilog [(Aex+Aem)/2], where Aex is the absorbance at the excitation wavelength and Aem is the absorbance at the emission wavelength. The dissociation constant (Kd) was determined by the formula: 1/B=Kd/[free ligand]+1, where B is the fractional occupancy and [free ligand] is the concentration of free noscapine or 9-nitro-nos. The fractional occupancy (B) was determined by the formula B=ΔF/ΔFmax, where ΔF is the change in fluorescence intensity when tubulin and its ligand are in equilibrium and ΔFmax is the value of maximum fluorescence change when tubulin is completely bound with its ligand. ΔFmax was calculated by plotting 1/ΔF versus 1/ligand using total ligand concentration as the first estimate of free ligand concentration.
Fluorescence titration for determining the tubulin binding parameters was performed as described previously. In brief, 9-F-nos, 9-Cl-nos, 9-Br-nos or 9-I-nos (0-100 μM) was incubated with 2 μM tubulin in 25 mM PIPES, pH 6.8, 3 mM MgSO4, and 1 mM EGTA for 45 min at 37° C. The relative intrinsic fluorescence intensity of tubulin was then monitored in a JASCO FP-6500 spectrofluorometer (JASCO, Tokyo, Japan) using a cuvette of 0.3-cm path length, and the excitation wavelength was 295 nm. The fluorescence emission intensity of noscapine and its derivatives at this excitation wavelength was negligible. A 0.3-cm path-length cuvette was used to minimize the inner filter effects caused by the absorbance of these agents at higher concentration ranges. In addition, the inner filter effects were corrected using a formula F corrected=F observe·antilog [(Aex+Aem)/2], where Aex is the absorbance at the excitation wavelength and Aem is the absorbance at the emission wavelength. The dissociation constant (Kd) was determined by the formula: 1/B=Kd/[free ligand]+1, where B is the fractional occupancy and [free ligand] is the concentration of 9-F-nos, 9-Cl-nos, 9-Br-nos or 9-I-nos. The fractional occupancy (B) was determined by the formula B=ΔF/ΔFmax, where ΔF is the change in fluorescence intensity when tubulin and its ligand are in equilibrium and ΔFmax is the value of maximum fluorescence change when tubulin is completely bound with its ligand. ΔFmax was calculated by plotting 1/ΔF versus 1/[free ligand].

CEM cells = assay: In vitro cell proliferation MTS assay; type: cell-based; conditions: Homo sapiens, CCRF-CEM, 72 hours
Procedure: (§1) Suspension cells (CEM, CEMNLB100 and CEM/VM-1-5) were cultured in RPMI-1640 media containing 10% FBS and then seeded into 96-well plates at a density of 5×10^3 cells per well and were treated with increasing gradient concentrations of 9-nitro-nos for 72 hours. Measurement of cell proliferation was performed colorimetrically by 3-(4,5-dimethylthiazol-2-yl)-5-(3-carboxymethoxyphenyl)-2-(4-sulphophenyl)-2H-tetrazolium, inner salt (MTS) assay, using the CellTiter96 AQueous One Solution Reagent (Promega, Madison, Wis.). Cells were exposed to MTS for 3 hours and absorbance was measured using a microplate reader (Molecular Devices, Sunnyvale, Calif.) at an optical density (OD) of 490 nm. The percentage of cell survival as a function of drug concentration for both the assays was then plotted to determine the IC50 value, which stands for the drug concentration needed to prevent cell proliferation by 50%.
as §1, with “(CEM)” for “(CEM, CEMNLB100 and CEM/VM-1-5)”, “were” for “were cultured in RPMI-1640 media containing 10% FBS and then”, “increasing” for “increasing gradient”, “all halogenated analogs” for “9-nitro-nos”

MCF-7 cells [2] = assay: Sulforhodamine B cell proliferation assay; type: cell-based, human; conditions: MCF-7, 72 hours, SRB
Procedure: (§2) Sulforhodamine B (SRB) assay: The cell proliferation assay was performed in 96-well plates as described previously. Adherent cells (MCF-7 and MDA-MB-231) were seeded in 96-well plates at a density of 5×10^3 cells per well. They were treated with increasing concentrations of the halogenated analogs the next day while in log-phase growth. After 72 hours of drug treatment, cells were fixed with 50% trichloroacetic acid and stained with 0.4% sulforhodamine B dissolved in 1% acetic acid. After 30 minutes, cells were then washed with 1% acetic acid to remove the unbound dye. The protein-bound dye was extracted with 10 mM Tris base to determine the optical density at 564-nm wavelength.

MDA-MB-231 cells [3] = assay: DAPI staining, cell morphology by fluorescence microscopy; type: cell-based, human; conditions: 25 μM, 72 hours
Procedure: Cell morphology was evaluated by fluorescence microscopy following DAPI staining (Vectashield, Vector Labs, Inc., Burlingame, Calif.). MDA-MB-231 cells were grown on poly-L-lysine coated coverslips in 6-well plates and were treated with the halogenated analogs at 25 μM for 72 hours. After incubation, coverslips were fixed in cold methanol and washed with PBS, stained with DAPI, and mounted on slides. Images were captured using a BX60 microscope (Olympus, Tokyo, Japan) with an 8-bit camera (Dage-MTI, Michigan City, Ind.) and IP Lab software (Scanalytics, Fairfax, Va.). Apoptotic cells were identified by features characteristic of apoptosis (e.g. nuclear condensation, formation of membrane blebs and apoptotic bodies).

MDA-MB-231 cells [4] = assay: Sulforhodamine B cell proliferation assay; type: cell-based; conditions: Homo sapiens; MDA-MB-231, 72 hours, SRB
Procedure: as §2

MCF-7 cells [5] = assay: Cell cycle analysis (propidium iodide, flow cytometry); type: cell-based, human; conditions: for G0/G1 / G2/M / S / Sub-G1: MCF-7, 25 μM, mean ± S.E.M.
Procedure: The flow cytometric evaluation of the cell cycle status was performed as described previously. Briefly, 2×10^6 cells were centrifuged, washed twice with ice-cold PBS, and fixed in 70% ethanol. Tubes containing the cell pellets were stored at 4° C. for at least 24 hours. Cells were then centrifuged at 1000×g for 10 min and the supernatant was discarded. The pellets were washed twice with 5 ml of PBS and then stained with 0.5 ml of propidium iodide (0.1% in 0.6% Triton-X in PBS) and 0.5 ml of RNase A (2 mg/ml) for 45 minutes in dark. Samples were then analyzed on a FACSCalibur flow cytometer (Beckman Coulter Inc., Fullerton, Calif.).

tubulin [6] = molecular target: T1, tubulin; conditions: values with literature reference [18], [12], [43]; read-out: dissociation constant (Kd) for binding to tubulin; cited from earlier work

Kd (tubulin [1])	IC50 (MCF-7 cells [2]; Homo sapiens, MCF7, 72 h)	IC50 (MDA-MB-231 cells [4])	SMILES	IC50 (CEM cells)	nuclear morphology (features of apoptotic cells), DAPI (MDA-MB-231 cells [3])	G0/G1 (MCF-7 cells [5]; 0 h)	G2/M (MCF-7 cells [5]; 0 h)	S (MCF-7 cells [5]; 0 h)	Sub-G1 (MCF-7 cells [5]; 0 h)	G0/G1 (MCF-7 cells [5]; 24 h)	G2/M (MCF-7 cells [5]; 24 h)	S (MCF-7 cells [5]; 24 h)	Sub-G1 (MCF-7 cells [5]; 24 h)	G0/G1 (MCF-7 cells [5]; 48 h)	G2/M (MCF-7 cells [5]; 48 h)	S (MCF-7 cells [5]; 48 h)	Sub-G1 (MCF-7 cells [5]; 48 h)	G0/G1 (MCF-7 cells [5]; 72 h)	G2/M (MCF-7 cells [5]; 72 h)	S (MCF-7 cells [5]; 72 h)	also measured
22 ± 4 µM	45.6 ± 3.1 µM	25.6 ± 2.4 µM	COc1ccc2c(c1OC)C(=O)O[C@@H]2[C@H]1c2c(c(I)c3c(c2OC)OCO3)CCN1C [9-I-nos, (S)-6,7-dimethoxy-3-((R)-4-methoxy-6-methyl-9-iodo-5,6,7,8-tetrahydro-[1,3]dioxolo[4,5-g]isoquinolin-5-yl)isobenzofuran-1(3H)-one]	38.9 ± 3.5 µM	condensed chromosomes, numerous fragmented micronuclei, and apoptotic bodies are evident	60.6 ± 4.6%	23.1 ± 3.7%	13.9 ± 2.3%	0.3 ± 0.2%	17 ± 2.3%	44.5 ± 5.1%	3.1 ± 1.3%	7.7 ± 1.7%	15.4 ± 4.5%	25.9 ± 4.1%	2.9 ± 0.6%	28.1 ± 3.1%	17 ± 1.9%	20.7 ± 2.2%	4.9 ± 2.2%	Sub-G1 (MCF-7 cells [5]; 72 h): 30.1 ± 3.1%
40 ± 8 µM	1.9 ± 0.3 µM	1.9 ± 0.3 µM	COc1ccc2c(c1OC)C(=O)OC2C1c2c(c(Cl)c3c(c2OC)OCO3)CCN1C (stereo not drawn) [9-Cl-nos]	1.2 ± 0.3 µM	condensed chromosomes, numerous fragmented micronuclei, and apoptotic bodies are evident	69 ± 5.6%	20.7 ± 3.4%	7.5 ± 1.6%	1.4 ± 0.5%	11.5 ± 2.7%	59.7 ± 5.2%	4.3 ± 1.4%	15.3 ± 2.5%	8 ± 3.3%	42.4 ± 3.8%	4 ± 1.1%	37.8 ± 3.2%	5.9 ± 1.9%	35.3 ± 3.9%	4.1 ± 1.4%	Kd (tubulin [6]): 40 ± 8 µM; IC50 (MCF-7 cells [2]): 3.5 ± 0.4 µM; Sub-G1 (MCF-7 cells [5]; 72 h): 50.2 ± 2.5%; percent sub-G1 cells compared with noscapine (MCF-7 cells [5]; MCF-7, lower doses (5 μM and 10 μM), 72 hours): higher
